Data set [1] deals with Bacillus Cereus. Put plainly: Agar plate disc-diffusion, antibacterial activity by inhibition zone. Type of data set: cell-based. Particulars: Bacillus Cereus (Gram positive). As to the method: (§1) The agar plate disc-diffusion method was applied. […] The discs were then placed onto the surface of agar plates (nutrient agar for bacteria and Sabouraud's dextrose agar for fungi) seeded with the test organism. Each plate contained 15 ml of the agar medium, previously seeded with 0.2 mL of the broth culture of each organism pregrown for 18 hours. The plates were incubated at 37° C. for 48 hours and 72 hours for fungi. The inhibition zones were measured in mm. Discs impregnated with DMSO were used as a control, and their inhibition zone was subtracted from the tested compound's actual inhibition zone.
(§2) The results of the antimicrobial testing can be observed in Tables 1 and 2, below, with ciprofloxacin serving as a reference.
(In general: A growth-free zone around the sample is the usual read-out of agar diffusion tests.)

For data set [2], the system named is Escherichia coli. The data set is described as above. Particulars: Escherichia coli (Gram negative). Type of data set: cell-based. Here is the method: as §1, §2
The test system of data set [3] is Pseudomonas aeruginosa. The description is as above. Type of data set: cell-based. Particulars: Pseudomonas aeruginosa (Gram negative). As to the method: as §1, §2
Data set [4] has as its system Staphylococcus aureus. The data set is described as above. Type of data set: cell-based. Particulars: Staphylococcus aureus (Gram positive). As to the method: as §1, §2
The subject of data set [5] is Aspergillus flavus. Put plainly: Agar plate disc-diffusion, antifungal activity by inhibition zone. Type of data set: cell-based. As to the method:
as §1, §2

Data set [6] deals with Chrysosporium keratinophilum. Described as above. Type of data set: cell-based. Here is the method: as §1, §2
Where [7] appears, read: A = concentration of comp. = 10,000 μL.
Where [8] appears, read: B = concentration of comp. = 30.000 μL.
Where [9] appears, read: C = concentration of comp. = 50,000 μL.

The source of these data is patent publication US11958826B1, “6′-(2-chlorophenyl)-2′-ethoxy-3,4′-bipyridine-3′- carbonitrile as an antimicrobial compound” (KING FAISAL UNIVERSITY, priority 2023, dated 2024).

The melting point is the temperature of the solid-liquid transition.

Consider `CCOc1nc(-c2ccccc2Cl)cc(-c2cccnc2)c1C#N` [Compound 4, 6′-(2-chlorophenyl)-2′-ethoxy-3,4′-bipyridine-3′-carbonitrile], for which the melting point lay within 156 to 158 °C. This molecule had an inhibition zone in data set [1] (setting [7]) of 25 mm. Further, in data set [1] (setting [8]), the inhibition zone is given as 27 mm. For the same molecule, the inhibition zone in data set [1] (setting [9]) was determined as 39 mm. Further, the inhibition zone in data set [2] (setting [7]) amounted to 26 mm. This molecule returned an inhibition zone in data set [2] (setting [8]) of 28 mm. In data set [2] (setting [9]), this molecule gave an inhibition zone of 40 mm. In data set [3] (setting [7]), this molecule displayed an inhibition zone of 25 mm. The inhibition zone in data set [3] (setting [8]) is given as 27 mm. Also, the inhibition zone in data set [3] (setting [9]) is 38 mm. Besides, the inhibition zone in data set [4] (setting [7]) was 18 mm. The same molecule had an inhibition zone in data set [4] (setting [8]) of 24 mm. Moreover, the inhibition zone in data set [4] (setting [9]) was found to be 36 mm. Besides, the inhibition zone in data set [5] (setting [7]) was determined as 20 mm. Further, the inhibition zone in data set [5] (setting [8]) came out at 24 mm. This molecule also showed an inhibition zone in data set [5] (setting [9]) of 35 mm. Further, the inhibition zone in data set [6] (setting [7]) is 25 mm. The inhibition zone in data set [6] (setting [8]) stood at 27 mm. Further, the inhibition zone in data set [6] (setting [9]) is recorded as 44 mm.
